These results are taken from US20100286023A1, “Compositions and Methods for Increasing Muscle Mass, Strength, and Functional Performance in the Elderly” (priority 2008, published 2010).

The subject of one experiment is muscle protein synthesis. As to conditions: tightly controlled laboratory setting, glucose infused to maintain euglycemia; cited from earlier work.
In another experiment the test system is anesthetized rabbits. The experiment can be described thus: Amino acid infusion with arginine raised to about 50% of the mixture (Example 6). Format: in vivo, rabbit. An excerpt:
Muscle protein synthesis was stimulated in anesthetized rabbits when arginine was increased to about 50% of the total mixture of amino acids infused. […] The mechanism by which arginine activates the initiation of protein synthesis is the same as leucine. Further, arginine is relatively deficient in the elderly. Thus, addition of arginine may work in concert with leucine to activate protein synthesis in elderly.

Turning to “insulin: hormone, pharmacological treatment compared with EAAs”, in the experiment with muscle protein synthesis, the “Effect on muscle protein synthesis compared with EAAs” value was “in the same range of effectiveness as EAAs”.
As to `N=C(N)NCCC[C@H](N)C(=O)O` [arginine], the Muscle protein synthesis entry with anesthetized rabbits (arginine about 50% of the total mixture of amino acids infused) is given as “stimulated”. In addition, the Muscle protein breakdown entry in the experiment with anesthetized rabbits (arginine added to the amino acid solution) is given as “unchanged”. For the same compound, in the experiment on anesthetized rabbits (post-absorptive rabbits), the Net muscle catabolism result is reported as “virtually completely reversed”.
